In PubChem BioAssay AID179 (DTP/NCI, 2004) one finds EC50, IC50 and outcome data, which are given here for 53 compounds.

In this test the test system is CEM cells HIV-1 protection, formazan growth assay. The experiment in a line: NCI AIDS Antiviral Assay. The conditions noted are these: for IC50: measured here: growth of uninfected CEM cells. A digest of the protocol: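 Human CEM cells, uninfected and HIV-1-infected, exposed to five drug concentrations; growth measured by soluble formazan assay and scored as percent protection from infection, with protecting compounds retested.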

One may read the EC50 as the concentration at which the effect is half-maximal. As usually defined, the IC50 is the concentration needed to halve the response being measured. Read a high IC50 as a need for much substance.

Structures are written as SMILES. Several values for one entry are separate records, joined by “and”; a condition that tells them apart may be missing. Identical values can stand only once. Activity calls are given as the source filed them.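 How the source made its calls: active means compounds giving half or more protection of infected cells from virus-caused growth loss, again on retest; inactive means the rest.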

Turning to `[N-]=[N+]=Nc1cc(=O)[nH]nc1-c1ccccc1`, the EC50 is over 200 µM and the IC50 is over 200 µM.
With `N#Cc1c(-c2ccccc2)c(C#N)c(=S)n(C2OCC(O)C(O)C2O)c1N` (configuration not stated), the EC50 is over 200 µM; the IC50 is 195 µM and > 200 µM.
Regarding `CC(C)=Cc1cc(C(=O)Nc2ccc(Cl)c(Cl)c2)nc(N)n1`, the EC50 was over 741 µM and the IC50 is 490 µM.
The like results for `CC(=O)OCC(=O)[C@@]1(O)CC[C@H]2[C@@H]3CCC4=CC(=O)C[C@H](SC(C)=O)[C@]4(C)[C@H]3CC[C@@]21C` were, in that order, over 200 µM and 117 µM.
The like results for `CCn1c2c(n(CC)c1=S)-c1c(n(CC)c(=S)n1CC)SSSS2` were, in that order, over 58.9 µM and over 58.9 µM.
For `O=C(CC1=Nc2nnc(-c3nnc4n3C(=O)C(CC(=O)C3CC3)=N4)n2C1=O)C1CC1`, the EC50 was over 24.5 µM and the IC50 is over 24.5 µM.
Regarding `CCOP(=O)(OCC)C(F)(F)CC1CCCCC1`, the EC50 is over 200 µM and the IC50 was 170 µM.
With `c1ccc([P+](Cc2ccc(C[P+](c3ccccc3)(c3ccccc3)c3ccccc3)s2)(c2ccccc2)c2ccccc2)cc1`, the EC50 was 16.2 µM and the IC50 was 34.7 µM.
On to `CC(=O)c1c2c(cc3c1CC1(C3)Cc3cc4c(c(C(C)=O)c3C1)CCC4)CCC2`, for which the EC50 was over 18.6 µM and the IC50 is over 18.6 µM.
`c1ccc(SC2CC[C@H]3CCCC[C@H]3O2)cc1` (some centres not stated): the outcome was inactive.
For the compound `CC(=O)C1C(=O)C(=O)N(c2ccc(Cl)c(Cl)c2)C1=O` (configuration not stated), the EC50 is over 200 µM and the IC50 was 129 µM.
In the case of `CC(C(=O)NCNC(=O)c1ccccc1)C(=O)NCc1ccccc1` (configuration not stated), the result was inactive.
`O=C(CCCN1CCC(n2c(=O)[nH]c3ccccc32)CC1)c1ccc(F)cc1`: the EC50 is over 200 µM and the IC50 was determined as 89.1 µM.
In the case of `CCCCCCCCCCCCCC(=O)NCO`, the outcome was inactive.
Take `O=c1c(Cc2ccccc2)c(O)n(Cc2nc3ccccc3[nH]2)c(=S)n1-c1ccccc1`: the EC50 is over 200 µM and the IC50 was over 200 µM.
Take `O[C@]12c3ccccc3C1CCCC2N1CCOCC1` (some centres not stated): the EC50 is over 200 µM and the IC50 is over 200 µM.
`COc1cc(/C=C/C(=N\NS(=O)(=O)c2ccc(C)cc2)c2sc(NNC(C)=O)nc2C)ccc1O`: the EC50 is over 46.8 µM and the IC50 is over 46.8 µM.
In the case of `COc1ccc(C2=Nc3ccccc3N=C(SC)C2)cc1`, the EC50 is 2.4 µM and the IC50 turned out to be 17.8 µM.
The like results for `O=c1cc(CN2CCCCC2)[nH]c2c1ccc1nc(CN3CCCCC3)cc(=O)n12` were, in that order, over 100 µM and over 100 µM.
The like results for `O=C1C=C(Nc2ccc(Br)cc2)c2ccccc2C1=O` were, in that order, over 4.37 µM and over 4.37 µM.
Consider `O=c1[nH][nH]c(=O)c2c1[nH]c(=S)n2-c1ccccc1`, for which the EC50 is over 200 µM and the IC50 was over 200 µM.
As to `NCC(=O)Nc1ccc(S(=O)(=O)O)c2cc(S(=O)(=O)O)cc(S(=O)(=O)O)c12`, the EC50 is over 200 µM and the IC50 was over 200 µM.
Consider `C/C=C/C[P+](Cc1ccccc1)(c1ccccc1)c1ccccc1`, for which the EC50 was over 603 µM and the IC50 stood at 4.17 µM.
As for `CN(C)Cc1cc(C(=O)/C=C/c2ccc(Cl)cc2Cl)cc(CN(C)C)c1O`, the EC50 is over 200 µM and the IC50 amounted to 3.8 µM.
As to `COc1ccc2[nH]c3c([N+](=O)[O-])ccc(Cl)c3c(=O)c2c1`, the outcome was inactive.
On to `COC1CC(C)C(OC)C2=CC(=O)C=C(NC(=O)/C(C)=C/C=C\C(C)C(OC(N)=O)/C(C)=C\C(C)C1OC)C2=O` (configuration not stated), for which the EC50 was over 2 µM and the IC50 was determined as 0.204 µM.
With `O=[N+]([O-])c1ccccc1S(=O)(=O)Cc1ccccc1`, the EC50 was over 245 µM and the concentration for half-maximal inhibition (IC50) was over 245 µM.
Turning to `COc1ccc(/C=C/C(=O)c2c(OC)cc(OC)c(OC)c2O)cc1`, the outcome was inactive.
For the compound `Cc1cn(C2CC(COCc3ccccc3)N(CCO)O2)c(=O)[nH]c1=O` (configuration not stated), the EC50 was over 200 µM and the IC50 is over 200 µM.
Regarding `O=C1c2cc(O)cc(O)c2C(=O)c2c(O)cc(CO)cc21`, the outcome was inactive.
As to `O=C1OCC2=C1C(c1ccc3c(c1)OCO3)c1cc3c(cc1O2)OCO3` (configuration not stated), the EC50 was over 200 µM and the IC50 was found to be 1.66 µM.
The like results for `O=C1CCC2(CCC(=O)NC2=O)C(=O)N1` were, in that order, over 1200 µM and over 1200 µM.
The like results for `CCOC(=O)C1C2CCC(C2)C1(CCl)C(=O)OCC` (configuration not stated) were, in that order, over 251 µM and over 251 µM.
The like results for `CC(c1cccc2ccccc12)/[N+]([O-])=C/c1ccccc1` (configuration not stated) were, in that order, over 182 µM and 162 µM.
On to `Cc1cc(Nc2ccc(S(=O)(=O)O)cc2)c2ccccc2n1`, for which the EC50 was over 200 µM and the IC50 is over 200 µM.
Regarding `COc1cc(/C=N/NC(=O)CC(=O)N(C(=O)c2ccc(Cl)cc2)c2ccc(C)cc2)ccc1O`, the EC50 is over 195 µM and the IC50 is over 195 µM.
Consider `COc1cc(-c2nc(SC)nc3c2CCc2ccccc2-3)cc(OC)c1OC`, for which the EC50 was over 200 µM and the IC50 was over 200 µM.
On to `N#Cc1c(SCc2ccccc2)nc(-c2ccccc2)[nH]c1=S`, for which the EC50 is over 151 µM and the IC50 was found to be 19.5 µM.
The like results for `CC1(C)COC(c2ccccc2Br)=N1` were, in that order, over 200 µM and over 200 µM.
The like results for `Cc1nc(-n2nc(-c3ccccc3)cc2-c2ccccc2)sc1C(=O)CC(=O)C(=O)Nc1ccc(O)cc1` were, in that order, over 347 µM and over 347 µM.
As to `Cc1ccc(C)c(N2C(=O)C(=O)C(c3nc4ccccc4o3)/C(=N/N)C2=O)c1` (configuration not stated), the outcome was inactive.
Same read-out and setting: as for `Cc1ccc(N/N=c2\c3nc4ccccc4nc2n(-c2ccccc2C)c(=S)n3-c2ccc(C)cc2)cc1`, the entry is “inactive”.
For the compound `CCCCCCCCCCCCCCCCSS(=O)(=O)CCCCCCCC`, the EC50 is over 74.1 µM and the IC50 is over 74.1 µM.
With `O=C(O)CCSSCCCS(=O)O`, the EC50 was 105 µM and the IC50 is 191 µM.
Turning to `Cc1ccc(/C=N/NS(=O)(=O)c2ccccc2)cc1`, the result was inactive.
As to `CCOC1Oc2ccccc2-c2nc(C)c(C#N)cc21` (configuration not stated), the EC50 is over 83.2 µM and the IC50 was over 83.2 µM.
With `COc1ccc(-c2c3ccccc3c(-c3ccc(OCCBr)cc3)c3ccccc23)cc1`, the EC50 is over 100 µM and the IC50 was over 100 µM.
As for `CN(CC#N)C1CCC[C@]1(O)/C=C/[Si](C)(C)C` (some centres not stated), the EC50 is over 102 µM and the IC50 is over 102 µM.
As to `O=C(CCCNC(=O)OCc1ccccc1)OCc1ccc2c(c1)C(=O)c1ccccc1C2=O`, the EC50 was over 200 µM and the IC50 is over 200 µM.
For the compound `CCOC(=O)CCC(NC(=O)OCc1ccccc1)C(=O)NC(CCC(=O)OCC)C(=O)NC(CCC(=O)OCC)C(=O)NC(CCC(=O)OCC)C(=O)NC(CCC(=O)OCC)C(=O)OCC` (configuration not stated), the EC50 was over 100 µM and the IC50 was over 100 µM.
On to `O=C(/C(=C/c1cccc(Cl)c1)c1ccccc1)c1ccccc1`, for which the EC50 is over 8.51 µM and the IC50 was over 8.51 µM.
As to `Nc1nc(=S)c2[nH]cnc2[nH]1`, the EC50 is over 60.3 µM and the IC50 was 0.955 µM.
The like results for `Cc1ccc([N+](=O)[O-])cc1P(=O)(O)c1cc([N+](=O)[O-])ccc1C` were, in that order, over 200 µM and over 200 µM.
